Like-named read-outs stand apart in the source and are kept apart here.
Experiments:
Assay type in all cases: binding
[1] = target: T1, HeLa cell extract proteins (Homo sapiens, UniProt Q13510); details: HeLa; protein ASAH1
T1 construct: endogenous in cells; host or cells: HeLa cell extract
T1 sequence (Q13510 22-395): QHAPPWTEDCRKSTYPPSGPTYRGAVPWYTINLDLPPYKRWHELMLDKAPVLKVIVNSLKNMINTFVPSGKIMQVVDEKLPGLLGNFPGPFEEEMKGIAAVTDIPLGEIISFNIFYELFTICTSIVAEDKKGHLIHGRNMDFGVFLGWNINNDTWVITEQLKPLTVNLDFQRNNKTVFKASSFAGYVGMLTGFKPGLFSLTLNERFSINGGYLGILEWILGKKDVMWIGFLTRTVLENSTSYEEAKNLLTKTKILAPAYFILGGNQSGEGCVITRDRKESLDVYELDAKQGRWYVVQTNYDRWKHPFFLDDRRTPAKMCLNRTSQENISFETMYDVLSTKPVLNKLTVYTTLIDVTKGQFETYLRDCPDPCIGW

[2] = target: T2, HeLa cell extract proteins (Homo sapiens, UniProt P00390); details: protein GSR; HeLa
T2 construct: endogenous in cells; host or cells: HeLa cell extract
T2 sequence (P00390 44-522): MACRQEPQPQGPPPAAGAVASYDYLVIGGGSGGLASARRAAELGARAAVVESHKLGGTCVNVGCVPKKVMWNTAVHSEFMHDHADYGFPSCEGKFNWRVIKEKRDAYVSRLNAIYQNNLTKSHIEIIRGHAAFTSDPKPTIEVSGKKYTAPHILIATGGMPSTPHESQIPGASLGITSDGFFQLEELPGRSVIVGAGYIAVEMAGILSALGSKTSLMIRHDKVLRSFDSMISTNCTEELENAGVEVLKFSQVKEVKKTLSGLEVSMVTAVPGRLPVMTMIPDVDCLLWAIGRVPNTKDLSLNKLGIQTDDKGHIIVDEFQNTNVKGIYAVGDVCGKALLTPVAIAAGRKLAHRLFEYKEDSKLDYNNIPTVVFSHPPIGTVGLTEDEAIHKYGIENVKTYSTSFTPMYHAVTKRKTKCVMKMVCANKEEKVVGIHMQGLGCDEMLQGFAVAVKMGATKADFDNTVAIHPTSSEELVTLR

[3] = target: T3, HeLa cell extract proteins (Homo sapiens, UniProt O75718)
T3 construct: endogenous in cells; host or cells: HeLa cell extract
T3 sequence (O75718 27-401): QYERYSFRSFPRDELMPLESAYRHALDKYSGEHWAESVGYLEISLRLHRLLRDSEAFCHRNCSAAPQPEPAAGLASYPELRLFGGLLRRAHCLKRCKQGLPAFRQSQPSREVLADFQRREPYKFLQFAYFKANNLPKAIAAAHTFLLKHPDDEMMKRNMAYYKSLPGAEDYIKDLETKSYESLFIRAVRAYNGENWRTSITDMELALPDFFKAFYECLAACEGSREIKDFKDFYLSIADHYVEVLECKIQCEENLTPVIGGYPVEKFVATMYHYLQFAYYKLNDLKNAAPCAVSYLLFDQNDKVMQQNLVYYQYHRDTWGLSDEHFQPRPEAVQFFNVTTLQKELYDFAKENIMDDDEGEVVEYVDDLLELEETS

[4] = target: T4, HeLa cell extract proteins (Homo sapiens, UniProt P49736)
T4 construct: endogenous in cells; host or cells: HeLa cell extract
T4 sequence (P49736 whole entry): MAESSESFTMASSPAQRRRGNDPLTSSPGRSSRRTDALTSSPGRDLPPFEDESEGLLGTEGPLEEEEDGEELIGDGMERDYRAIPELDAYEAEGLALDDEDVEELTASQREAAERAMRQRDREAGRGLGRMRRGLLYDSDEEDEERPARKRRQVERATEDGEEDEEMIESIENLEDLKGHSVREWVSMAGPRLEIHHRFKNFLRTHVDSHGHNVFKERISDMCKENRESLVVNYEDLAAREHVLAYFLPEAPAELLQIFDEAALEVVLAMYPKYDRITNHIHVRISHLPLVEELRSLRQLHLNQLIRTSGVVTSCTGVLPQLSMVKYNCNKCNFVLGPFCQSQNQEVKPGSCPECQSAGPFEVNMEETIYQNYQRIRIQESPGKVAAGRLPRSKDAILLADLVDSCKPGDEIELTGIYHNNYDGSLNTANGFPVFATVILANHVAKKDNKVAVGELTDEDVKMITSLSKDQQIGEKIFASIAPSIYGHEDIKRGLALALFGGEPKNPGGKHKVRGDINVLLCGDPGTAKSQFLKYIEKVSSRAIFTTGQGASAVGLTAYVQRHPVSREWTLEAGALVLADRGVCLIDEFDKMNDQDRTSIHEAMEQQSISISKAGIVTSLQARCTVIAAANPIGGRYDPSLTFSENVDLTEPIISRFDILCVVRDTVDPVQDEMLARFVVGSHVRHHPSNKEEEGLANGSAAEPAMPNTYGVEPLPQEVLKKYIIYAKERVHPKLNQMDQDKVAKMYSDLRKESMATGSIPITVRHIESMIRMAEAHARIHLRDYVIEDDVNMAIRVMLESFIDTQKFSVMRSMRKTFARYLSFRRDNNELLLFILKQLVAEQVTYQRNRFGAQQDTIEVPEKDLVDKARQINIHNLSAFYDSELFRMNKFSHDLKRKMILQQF

[5] = target: T5, HeLa cell extract proteins (Homo sapiens, UniProt P62081)
T5 construct: endogenous in cells; host or cells: HeLa cell extract

[6] = target: T6, HeLa cell extract proteins (Homo sapiens, UniProt P24390)
T6 construct: endogenous in cells; host or cells: HeLa cell extract
T6 sequence (P24390 1-212): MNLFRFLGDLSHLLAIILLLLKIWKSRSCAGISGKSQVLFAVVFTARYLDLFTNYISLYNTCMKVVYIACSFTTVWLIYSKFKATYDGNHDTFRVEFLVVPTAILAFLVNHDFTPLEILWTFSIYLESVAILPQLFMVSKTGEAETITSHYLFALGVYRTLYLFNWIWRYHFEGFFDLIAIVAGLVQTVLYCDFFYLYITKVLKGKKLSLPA

[7] = target: T7, HeLa cell extract proteins (Homo sapiens, UniProt P55209)
T7 construct: endogenous in cells; host or cells: HeLa cell extract
T7 sequence (P55209 1-391): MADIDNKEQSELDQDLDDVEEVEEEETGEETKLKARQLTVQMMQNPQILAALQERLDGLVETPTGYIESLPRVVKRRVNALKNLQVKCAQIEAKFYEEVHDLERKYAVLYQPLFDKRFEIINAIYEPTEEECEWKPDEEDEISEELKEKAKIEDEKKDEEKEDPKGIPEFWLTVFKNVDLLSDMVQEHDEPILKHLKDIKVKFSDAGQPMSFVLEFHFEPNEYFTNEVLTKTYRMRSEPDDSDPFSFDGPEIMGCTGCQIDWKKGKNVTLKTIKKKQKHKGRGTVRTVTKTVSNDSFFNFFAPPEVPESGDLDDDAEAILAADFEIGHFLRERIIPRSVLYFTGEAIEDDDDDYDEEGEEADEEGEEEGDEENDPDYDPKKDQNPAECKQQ

[8] = target: T8, HeLa cell extract proteins (Homo sapiens, UniProt Q99805)
T8 construct: endogenous in cells; host or cells: HeLa cell extract
T8 sequence (Q99805 29-663): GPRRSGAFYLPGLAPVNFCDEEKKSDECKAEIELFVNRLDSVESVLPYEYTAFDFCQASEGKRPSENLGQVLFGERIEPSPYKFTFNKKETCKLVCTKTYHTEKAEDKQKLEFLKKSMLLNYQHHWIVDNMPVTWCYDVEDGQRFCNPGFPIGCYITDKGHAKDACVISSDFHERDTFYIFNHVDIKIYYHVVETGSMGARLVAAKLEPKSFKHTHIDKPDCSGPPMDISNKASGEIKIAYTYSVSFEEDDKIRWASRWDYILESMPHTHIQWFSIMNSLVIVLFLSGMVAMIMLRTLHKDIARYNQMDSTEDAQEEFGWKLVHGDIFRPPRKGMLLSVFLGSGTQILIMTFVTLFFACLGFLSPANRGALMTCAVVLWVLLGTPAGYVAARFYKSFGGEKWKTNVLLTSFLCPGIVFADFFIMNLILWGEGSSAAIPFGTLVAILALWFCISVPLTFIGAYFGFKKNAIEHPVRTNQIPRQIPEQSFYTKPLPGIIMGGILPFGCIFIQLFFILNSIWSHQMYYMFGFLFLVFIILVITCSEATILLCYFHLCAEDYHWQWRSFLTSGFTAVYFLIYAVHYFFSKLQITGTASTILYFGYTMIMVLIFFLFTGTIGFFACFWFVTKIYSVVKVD

[9] = target: T9, HeLa cell extract proteins (Homo sapiens, UniProt P13804)
T9 construct: endogenous in cells; host or cells: HeLa cell extract
T9 sequence (P13804 20-333): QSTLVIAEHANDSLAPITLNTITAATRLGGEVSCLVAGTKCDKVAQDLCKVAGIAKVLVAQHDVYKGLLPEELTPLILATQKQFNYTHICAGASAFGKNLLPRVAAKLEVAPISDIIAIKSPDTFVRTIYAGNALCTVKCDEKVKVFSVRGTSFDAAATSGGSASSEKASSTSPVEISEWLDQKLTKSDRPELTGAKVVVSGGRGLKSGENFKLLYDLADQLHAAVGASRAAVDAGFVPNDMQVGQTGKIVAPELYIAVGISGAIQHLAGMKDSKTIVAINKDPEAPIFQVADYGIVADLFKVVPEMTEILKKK

[10] = target: T10, HeLa cell extract proteins (Homo sapiens, UniProt Q9P2J5)
T10 construct: endogenous in cells; host or cells: HeLa cell extract
T10 sequence (Q9P2J5 whole entry): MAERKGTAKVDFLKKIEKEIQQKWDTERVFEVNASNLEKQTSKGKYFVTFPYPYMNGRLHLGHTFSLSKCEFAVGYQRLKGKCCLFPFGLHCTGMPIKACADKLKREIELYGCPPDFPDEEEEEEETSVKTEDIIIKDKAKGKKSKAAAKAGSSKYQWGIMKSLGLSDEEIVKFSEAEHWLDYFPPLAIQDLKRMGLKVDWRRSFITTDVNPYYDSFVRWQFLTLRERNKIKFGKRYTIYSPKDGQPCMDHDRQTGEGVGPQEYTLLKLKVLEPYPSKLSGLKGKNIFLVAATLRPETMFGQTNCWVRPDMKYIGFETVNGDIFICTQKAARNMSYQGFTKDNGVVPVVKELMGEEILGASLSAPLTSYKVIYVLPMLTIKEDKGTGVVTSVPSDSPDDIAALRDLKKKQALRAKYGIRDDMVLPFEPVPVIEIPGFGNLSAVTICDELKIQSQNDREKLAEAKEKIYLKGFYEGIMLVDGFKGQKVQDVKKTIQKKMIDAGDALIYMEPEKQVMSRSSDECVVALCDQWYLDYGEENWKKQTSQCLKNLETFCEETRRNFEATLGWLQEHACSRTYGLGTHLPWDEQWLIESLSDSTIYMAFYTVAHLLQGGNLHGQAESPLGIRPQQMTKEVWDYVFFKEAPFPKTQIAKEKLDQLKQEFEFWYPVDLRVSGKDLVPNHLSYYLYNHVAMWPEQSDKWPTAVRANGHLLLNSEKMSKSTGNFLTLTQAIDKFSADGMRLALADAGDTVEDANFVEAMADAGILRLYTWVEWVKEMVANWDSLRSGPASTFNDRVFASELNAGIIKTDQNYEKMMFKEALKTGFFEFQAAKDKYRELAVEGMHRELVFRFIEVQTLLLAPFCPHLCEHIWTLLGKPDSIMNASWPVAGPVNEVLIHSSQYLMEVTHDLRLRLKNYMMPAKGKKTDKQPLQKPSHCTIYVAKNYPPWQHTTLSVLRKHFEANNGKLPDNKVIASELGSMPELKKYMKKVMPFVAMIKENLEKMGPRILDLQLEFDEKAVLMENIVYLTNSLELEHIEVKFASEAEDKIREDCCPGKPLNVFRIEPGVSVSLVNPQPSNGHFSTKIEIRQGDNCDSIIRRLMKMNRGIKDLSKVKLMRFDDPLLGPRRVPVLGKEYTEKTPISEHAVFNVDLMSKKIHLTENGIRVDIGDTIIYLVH

Row | Structure (SMILES) | fold changes relative to vehicle control [1] | fold changes relative to vehicle control [2] | fold changes relative to vehicle control ([3]; protein CRTAP, HeLa) | fold changes relative to vehicle control ([4]; HeLa, protein MCM2) | fold changes relative to vehicle control ([5]; HeLa, protein RPS7) | fold changes relative to vehicle control ([6]; HeLa, protein KDELR1) | fold changes relative to vehicle control ([7]; HeLa, captured protein NAP1L1) | fold changes relative to vehicle control ([8]; HeLa, protein TM9SF2) | fold changes relative to vehicle control ([9]; protein ETFA, HeLa) | fold changes relative to vehicle control ([10]; HeLa, protein LARS) | further results
1 | Nc1nc2cccc(-c3ccccc3)c2n1Cc1ccc(Cl)c(Cl)c1 [compound 3] | 0.89 | 1 |  |  |  |  |  |  |  |  | 
2 | CCCCCCOc1ccc(Cc2cnc(N)nc2N)cc1 [compound 1] | 0.97 | 0.94 |  |  |  |  |  |  |  |  | 
3 | NCCCNc1ccc(C(=O)NC(CCC(=O)O)C(=O)O)cc1 (centres unmarked) [compound 7] |  |  | 0.91 | 0.88 | 0.88 | 1.25 | 1.06 | 0.82 | 0.87 | 1.13 | 
4 | CCCCCCOc1cccc(Cc2cnc(N)nc2N)c1 [compound 2] | 0.71 | 1.15 |  |  |  |  |  |  |  |  | 
5 | NCCOCCOCC(=O)Nc1nc2ncc(CNc3ccc(C(=O)NC(CCC(=O)O)C(=O)O)cc3)nc2c(=O)[nH]1 (centres unmarked) [compound 6] |  |  | 0.86 | 1.18 | 1.06 | 2.19 | 1.19 | 0.84 | 0.9 | 1 | 
6 | Nc1nc2[nH]cc(CCc3ccc(C(=O)N[C@@H](CCC(=O)O)C(=O)O)cc3)c2c(=O)[nH]1 [PTX, pemetrexed] |  |  |  |  |  |  |  |  |  |  | fold changes relative to vehicle control [3]: 0.82; fold changes relative to vehicle control [4]: 1.05; fold changes relative to vehicle control [5]: 0.92; fold changes relative to vehicle control [6]: 1.16; fold changes relative to vehicle control [7]: 1.04; fold changes relative to vehicle control [8]: 0.76; fold changes relative to vehicle control [9]: 0.73; fold changes relative to vehicle control [10]: 1.11
7 | Nc1nc2c(c(=O)[nH]1)N(C=O)C(CNc1ccc(C(=O)N[C@@H](CCC(=O)O)C(=O)O)cc1)CN2 (some centres unmarked) [LEU, leucovorin] |  |  | 0.85 | 1.06 | 0.94 | 1.06 | 0.97 | 0.74 | 0.77 | 1.04 | 

From PMC6199744, “Development of Chemical Proteomics for the Folateome and Analysis of the Kinetoplastid Folateome” (ACS Infectious Diseases, 2018)
